Results from US6984754B1, “Aliphatic amino carboxylic and amino phosphonic acids amino nitriles and amino tetrazoles as cellular rescue agents” (University of Saskatchewan Technologies Inc., priority 1998, dated 2006).

Tests used:
[1] = test system: cerebellar granule cells (CGC); experiment: Antiapoptotic capacity (rescue) in cerebellar granule cells induced into apoptosis by cytosine arabinoside (CGC assay); type: cell-based, Wistar rat
Description: In Vitro Protocol for Assessing the Antiapoptotic Capacity of Various Compounds in Cerebellar Granule Cells
Cultures of cerebellar granule cells (CGC) can be induced into apoptosis by the addition of a high concentration of cytosine arabinoside (AraC). It has been shown that this is a p53 dependent apoptosis. We have measured the antiapoptotic effect of some amino acids, amino esters, amino phosphonic acids, amino nitriles and amino tetrazoles using this system.
Cultures of CGC were obtained from 6-8 day old Wistar rat pups. Cultures were grown on glass in 35 mm petri dishes for three days and then used for experiments. Aliquots (20 ul) of drug solutions (AraC, anti-apoptotic drugs, drug vehicles) were added to the medium of the culture. 24 Hours later the cultures were fixed with FAM, and stained with bis-benzamide. Normal and apoptotic nuclei were counted to a total of 90-120 cells per culture.

[2] = overall over 10^−6, 10^−9, 10^−12 M

melting point	Structure (SMILES)	Rescue by Amino Nitriles in the CGC Assay, 10^−9 M ([1]; compound 10^−9 M, AraC 300 uM-induced apoptosis, 24 hours)	Rescue by Amino Nitriles in the CGC Assay, 10^−12 M ([1]; compound 10^−12 M, AraC 300 uM-induced apoptosis, 24 hours)	Rescue by Amino Nitriles in the CGC Assay, Rescue (overall yes/no) [1, 2]	Rescue by Amino Acids and Esters in the CGC Assay, Rescue (overall yes/no) [1, 2]
140 °C	CCCCC[C@H](C)NCC#N.Cl [S-2-Heptyl (Acetonitriles), (S)-2-(2-Heptylamino)acetonitrile hydrochloride]	R	R	yes	–
56 to 58 °C	CCCCC[C@H](C)NCCC(=O)O.Cl [S-2-Heptyl (B-Alanines), (S)-3-(2-Heptylamino)propionic acid hydrochloride]	–	–	–	no
133 to 134 °C	CCCCC[C@H](C)NCCC#N.Cl [S-2-heptyl (Propionitriles), (S)-3-(2-Heptylamino)propionitrile hydrochloride]	–	–	no	–
199 to 200 °C	CCC(C)(C)NCCC#N.Cl [tert-Amyl (Propionitriles), 3-(t-Amylamino)propionitrile hydrochloride]	–	–	no	–
